From ChEMBL document CHEMBL1201862, “PubChem BioAssay data set” (2004)
“And” between values parts separate entries of the source, which are not always exact repeats. Equal entries are not always repeated. The source made the active and inactive calls.

Key:
[1] = target: Cytochrome P450 2C19 (Homo sapiens, UniProt P33261); test: Cytochrome panel assay with activity outcomes. Panel member name: p450-cyp2c19 Compounds with AC50 equal or less than 10 uM are considered active; type: functional
[2] = target: Cytochrome P450 2D6 (Homo sapiens, UniProt P10635);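 also: CYP2D6 member of a cytochrome P450 panel assay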
Cytochrome P450 2D6, sequence (P10635 whole entry): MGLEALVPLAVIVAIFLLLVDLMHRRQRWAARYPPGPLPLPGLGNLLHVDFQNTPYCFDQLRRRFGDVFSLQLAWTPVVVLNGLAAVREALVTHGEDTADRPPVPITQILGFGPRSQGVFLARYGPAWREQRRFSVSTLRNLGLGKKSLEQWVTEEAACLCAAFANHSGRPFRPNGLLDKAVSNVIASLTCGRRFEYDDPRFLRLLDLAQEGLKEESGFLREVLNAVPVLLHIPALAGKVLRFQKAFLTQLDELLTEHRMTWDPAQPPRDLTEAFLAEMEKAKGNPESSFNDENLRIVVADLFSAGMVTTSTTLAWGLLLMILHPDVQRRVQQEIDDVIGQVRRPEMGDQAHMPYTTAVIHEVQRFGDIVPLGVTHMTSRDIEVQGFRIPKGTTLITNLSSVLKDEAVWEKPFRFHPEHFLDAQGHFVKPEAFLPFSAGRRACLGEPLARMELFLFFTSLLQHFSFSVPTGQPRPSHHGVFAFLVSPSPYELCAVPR

[3] = target: T1, Cytochrome P450 1A2 (Homo sapiens, UniProt P05177)
T1 sequence (P05177 whole entry): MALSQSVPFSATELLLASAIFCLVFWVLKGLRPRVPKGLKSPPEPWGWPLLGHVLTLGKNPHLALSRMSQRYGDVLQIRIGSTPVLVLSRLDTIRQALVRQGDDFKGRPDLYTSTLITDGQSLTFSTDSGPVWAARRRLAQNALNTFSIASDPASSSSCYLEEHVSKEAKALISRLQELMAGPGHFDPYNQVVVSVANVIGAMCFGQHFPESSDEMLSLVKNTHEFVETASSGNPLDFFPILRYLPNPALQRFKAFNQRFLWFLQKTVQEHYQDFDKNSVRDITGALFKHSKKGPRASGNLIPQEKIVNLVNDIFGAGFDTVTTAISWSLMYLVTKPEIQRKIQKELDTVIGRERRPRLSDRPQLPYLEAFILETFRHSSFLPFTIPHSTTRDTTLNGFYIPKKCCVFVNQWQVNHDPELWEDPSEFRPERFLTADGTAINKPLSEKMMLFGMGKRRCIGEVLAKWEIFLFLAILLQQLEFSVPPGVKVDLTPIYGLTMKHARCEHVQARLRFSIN

[4] = target: T2, Replicative DNA helicase DnaB (Mycobacterium tuberculosis, UniProt P9WMR3); test: DnaB intein splicing inhibitors, dose response, biochemical, cell-free fluorescence (AID 449749); type: functional
T2 sequence (P9WMR3 whole entry): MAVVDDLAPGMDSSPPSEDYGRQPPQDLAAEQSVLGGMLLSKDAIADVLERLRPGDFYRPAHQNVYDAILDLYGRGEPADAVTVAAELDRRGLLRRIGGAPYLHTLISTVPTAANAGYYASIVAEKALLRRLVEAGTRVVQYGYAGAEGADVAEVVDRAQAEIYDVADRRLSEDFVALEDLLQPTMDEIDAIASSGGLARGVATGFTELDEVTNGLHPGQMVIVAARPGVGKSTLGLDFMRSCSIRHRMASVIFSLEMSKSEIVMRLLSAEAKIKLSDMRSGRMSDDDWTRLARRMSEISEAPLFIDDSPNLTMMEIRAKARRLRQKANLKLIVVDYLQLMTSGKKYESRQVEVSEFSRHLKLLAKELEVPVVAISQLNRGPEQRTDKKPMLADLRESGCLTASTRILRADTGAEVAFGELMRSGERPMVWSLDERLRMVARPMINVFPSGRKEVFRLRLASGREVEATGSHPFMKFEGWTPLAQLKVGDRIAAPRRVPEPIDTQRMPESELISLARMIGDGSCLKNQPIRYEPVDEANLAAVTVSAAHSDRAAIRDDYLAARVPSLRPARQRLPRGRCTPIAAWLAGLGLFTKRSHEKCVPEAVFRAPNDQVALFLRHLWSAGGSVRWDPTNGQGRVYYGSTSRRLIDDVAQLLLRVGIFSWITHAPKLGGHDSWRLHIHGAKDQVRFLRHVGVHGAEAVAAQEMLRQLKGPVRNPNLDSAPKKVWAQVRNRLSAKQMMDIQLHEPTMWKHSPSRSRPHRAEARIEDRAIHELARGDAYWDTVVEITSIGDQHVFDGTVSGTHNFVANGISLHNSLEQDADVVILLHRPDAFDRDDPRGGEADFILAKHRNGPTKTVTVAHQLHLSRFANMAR

[5] = target: T3, Protein RecA (Mycobacterium tuberculosis, UniProt P9WHJ3); test: Fluorescence Cell-Free Homogeneous Dose Retest to Identify Inhibitors of RecA-Intein Splicing Activity. [Related pubchem assays (depositor defined):AID2097, AID2223, AID489010, AID492950]; type: functional
T3 sequence (P9WHJ3 whole entry): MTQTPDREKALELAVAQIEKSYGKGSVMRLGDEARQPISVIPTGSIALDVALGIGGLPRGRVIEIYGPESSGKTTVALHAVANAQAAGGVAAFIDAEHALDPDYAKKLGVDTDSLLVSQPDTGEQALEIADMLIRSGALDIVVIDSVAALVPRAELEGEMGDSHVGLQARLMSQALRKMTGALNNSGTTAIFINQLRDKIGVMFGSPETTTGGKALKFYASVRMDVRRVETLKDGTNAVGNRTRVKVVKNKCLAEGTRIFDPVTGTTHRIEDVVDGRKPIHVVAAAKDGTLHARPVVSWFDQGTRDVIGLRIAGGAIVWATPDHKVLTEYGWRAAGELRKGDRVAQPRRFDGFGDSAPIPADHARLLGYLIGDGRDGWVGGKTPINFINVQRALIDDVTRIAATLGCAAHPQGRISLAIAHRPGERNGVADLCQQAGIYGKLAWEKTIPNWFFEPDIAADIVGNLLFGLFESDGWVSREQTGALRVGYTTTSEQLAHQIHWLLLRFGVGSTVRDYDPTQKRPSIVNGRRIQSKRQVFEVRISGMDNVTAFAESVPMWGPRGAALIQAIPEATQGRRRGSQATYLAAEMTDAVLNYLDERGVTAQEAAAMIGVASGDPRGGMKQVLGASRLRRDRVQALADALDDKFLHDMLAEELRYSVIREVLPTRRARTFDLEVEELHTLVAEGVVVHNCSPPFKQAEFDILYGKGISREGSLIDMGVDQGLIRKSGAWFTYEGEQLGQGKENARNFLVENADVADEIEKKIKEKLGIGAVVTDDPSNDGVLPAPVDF

[6] = target: Cytochrome P450 3A4 (Homo sapiens, UniProt P08684);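 also: CYP3A4 tested as one member of a cytochrome P450 panel screen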
Cytochrome P450 3A4, sequence (P08684 whole entry): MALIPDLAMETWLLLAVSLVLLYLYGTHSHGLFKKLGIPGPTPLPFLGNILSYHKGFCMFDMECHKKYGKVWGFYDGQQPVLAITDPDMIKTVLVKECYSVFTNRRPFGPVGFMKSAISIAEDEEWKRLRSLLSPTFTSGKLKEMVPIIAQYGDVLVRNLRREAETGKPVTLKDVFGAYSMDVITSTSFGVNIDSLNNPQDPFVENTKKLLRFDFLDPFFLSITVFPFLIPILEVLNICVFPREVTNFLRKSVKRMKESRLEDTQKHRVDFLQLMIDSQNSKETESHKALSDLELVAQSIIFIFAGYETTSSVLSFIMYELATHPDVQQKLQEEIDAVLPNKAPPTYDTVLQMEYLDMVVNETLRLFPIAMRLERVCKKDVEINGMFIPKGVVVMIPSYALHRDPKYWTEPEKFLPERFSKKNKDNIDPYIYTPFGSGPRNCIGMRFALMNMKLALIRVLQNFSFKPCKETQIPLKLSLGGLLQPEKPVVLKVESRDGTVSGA

[7] = target: Cytochrome P450 2C9 (Homo sapiens, UniProt P11712)
Cytochrome P450 2C9, sequence (P11712 whole entry): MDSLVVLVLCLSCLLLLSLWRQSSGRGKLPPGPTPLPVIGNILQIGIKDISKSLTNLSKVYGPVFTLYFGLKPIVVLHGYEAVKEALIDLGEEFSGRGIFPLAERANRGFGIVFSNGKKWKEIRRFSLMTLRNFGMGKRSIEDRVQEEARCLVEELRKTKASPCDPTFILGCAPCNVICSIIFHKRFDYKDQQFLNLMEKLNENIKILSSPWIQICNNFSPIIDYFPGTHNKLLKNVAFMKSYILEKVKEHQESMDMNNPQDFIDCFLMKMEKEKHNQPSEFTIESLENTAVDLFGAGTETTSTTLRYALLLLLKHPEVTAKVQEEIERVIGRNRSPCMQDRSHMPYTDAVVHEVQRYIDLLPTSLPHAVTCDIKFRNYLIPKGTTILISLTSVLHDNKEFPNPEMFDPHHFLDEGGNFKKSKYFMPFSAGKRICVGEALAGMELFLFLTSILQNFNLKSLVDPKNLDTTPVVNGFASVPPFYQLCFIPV

[8] = inhibitors of intracellular T. cruzi replication, confirmation, NIH3T3 host cells, beta-gal luminescence (AID 2044); type: functional, cell-based;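 also: intracellular parasites grown in NIH/3T3 mouse fibroblasts as host cells; luminescent beta-galactosidase reporter signal from transgenic T. cruzi replicating inside host cells; inhibitors lower the luminescence signal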
[9] = cytotoxicity toward NIH3T3 fibroblasts, dose response, counter-screen, cell-based, ATP luminescence, mouse fibroblasts (AID 2010); type: functional;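 also: cells exposed to compound for about 90 hours before reading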
[10] = target: T4, Corticotropin-releasing factor receptor 2/Corticotropin-releasing factor-binding protein (Homo sapiens, UniProt P24387+Q13324); test: activators of CRF receptor 2 with binding protein – uHTS hits, confirmation (AID 602473); type: functional; settings: read-out: EC50_Mean
T4 sequence (Q13324 whole entry): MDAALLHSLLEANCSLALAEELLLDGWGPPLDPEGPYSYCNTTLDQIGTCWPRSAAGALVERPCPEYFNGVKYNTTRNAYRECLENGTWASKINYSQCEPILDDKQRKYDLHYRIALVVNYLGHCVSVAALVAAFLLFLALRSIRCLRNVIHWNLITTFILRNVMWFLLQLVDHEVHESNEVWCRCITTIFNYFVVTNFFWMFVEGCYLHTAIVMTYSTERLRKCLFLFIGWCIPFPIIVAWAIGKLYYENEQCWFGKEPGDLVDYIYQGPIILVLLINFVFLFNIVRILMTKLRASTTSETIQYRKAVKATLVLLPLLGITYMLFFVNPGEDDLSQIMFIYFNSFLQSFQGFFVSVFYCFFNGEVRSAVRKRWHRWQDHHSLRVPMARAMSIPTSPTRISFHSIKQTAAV
T4 sequence (P24387 whole entry): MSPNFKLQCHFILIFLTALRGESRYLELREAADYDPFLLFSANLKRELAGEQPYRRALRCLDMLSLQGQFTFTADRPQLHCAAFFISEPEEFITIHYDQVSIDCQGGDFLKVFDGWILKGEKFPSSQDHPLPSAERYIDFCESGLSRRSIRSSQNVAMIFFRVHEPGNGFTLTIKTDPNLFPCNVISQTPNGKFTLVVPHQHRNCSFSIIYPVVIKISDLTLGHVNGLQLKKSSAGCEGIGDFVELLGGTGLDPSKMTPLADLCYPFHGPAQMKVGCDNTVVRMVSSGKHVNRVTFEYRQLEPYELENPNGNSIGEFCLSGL

[11] = target: T4, Corticotropin-releasing factor receptor 2/Corticotropin-releasing factor-binding protein; test: Dose Response confirmation of uHTS hits for small molecule antagonists of the CRF-binding protein and CRF-R2 receptor complex.; type: functional; settings: read-out: IC50_Mean

Cytochrome P450 2C19, sequence (P33261 whole entry): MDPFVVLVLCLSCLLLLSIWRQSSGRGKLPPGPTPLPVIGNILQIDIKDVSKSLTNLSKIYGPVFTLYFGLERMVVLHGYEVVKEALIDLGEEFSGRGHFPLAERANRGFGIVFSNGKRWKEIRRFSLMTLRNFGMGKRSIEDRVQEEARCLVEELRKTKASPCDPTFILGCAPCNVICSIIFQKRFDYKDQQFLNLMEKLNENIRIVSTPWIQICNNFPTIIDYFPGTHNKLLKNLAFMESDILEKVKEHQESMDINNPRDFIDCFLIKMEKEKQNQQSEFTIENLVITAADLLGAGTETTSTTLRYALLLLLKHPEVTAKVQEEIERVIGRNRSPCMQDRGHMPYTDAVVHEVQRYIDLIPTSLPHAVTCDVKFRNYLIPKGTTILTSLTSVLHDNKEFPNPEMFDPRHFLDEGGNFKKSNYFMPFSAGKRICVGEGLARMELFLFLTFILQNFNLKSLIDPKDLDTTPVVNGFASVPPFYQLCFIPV

O=C(c1ccncc1)N1CCC2(CC1)CCN(c1ccccn1)CC2
AC50 ([1]; read-out: AC50): 1 µM (inconclusive)
AC50 [2]: 31.6 µM (inconclusive)
AC50 [3]: 12.6 µM (inconclusive)

COc1ccc(OC)c(-c2[nH]nc3c2C(c2ccco2)C(C#N)=C(N)O3)c1 (stereo unspecified)
AC50 [4]: 185 µM (active)
EC50 [5]: 3.22 µM (active)

CCCn1c(=O)[nH]c(=O)c2c1nc(-c1ccc(OC(F)F)c(OC)c1)n2CCOC
AC50 [4]: > 380 µM (inactive)
EC50 [5]: > 380 µM (inactive)

CCOc1ccc(C2=Nn3c(nnc3-c3ccco3)SC2)cc1
AC50 [6]: 15.8 µM (inconclusive)

COc1ccccc1N1CCN(CCN2C(=O)CC3(CCCC3)CC2=O)CC1 [BMY-7378]
AC50 [6]: 20 µM (inconclusive) and 39.8 µM (inconclusive)

O=C(NCCNS(=O)(=O)c1ccc(Cl)cc1)c1cc(OCC(F)(F)F)ccc1OCC(F)(F)F
AC50 [6]: 7.08 µM (inconclusive)
AC50 [2]: 3.16 µM (inconclusive)
AC50 [3]: 2.82 µM (inconclusive)
AC50 [7]: 0.0251 µM (inconclusive)

O=C(C/C=N\OCc1c(Cl)cccc1Cl)Oc1ccc(Cl)cc1Cl
AC50 [4]: 21.8 µM (active)
EC50 [5]: 7.56 µM (active)

CC1=NC2(O)c3ccccc3C(=O)C2(O)/C1=C(/O)OC(C)C (stereo unspecified)
AC50 [4]: 21.2 µM (active)
EC50 [5]: 14.7 µM (active)

CC[C@@]1(O)C(=O)COc2c1cc1n(c2=O)Cc2c-1nc1cccc(C(C)C)c1c2[Si](C)(C)C
AC50 [6]: 15.8 µM (inconclusive)

CO[C@@H]1/C=C\CC(=O)N[C@@H](C)C(=O)OC[C@@H](OC)[C@H](C)/C=C\CC(=O)OC[C@H]1C
AC50 [6]: 3.98 µM (inconclusive)

COC(=O)c1c(C)ccc2c(O)c3c(cc12)C(=O)c1c2c(cc(O)c1C3=O)[C@@]1(C)O[C@@](C)(O2)[C@@H](O)[C@H](N(C)C)[C@H]1O
AC50 ([1]; read-out: AC50): 3.98 µM (inconclusive)
AC50 [3]: 5.01 µM (inconclusive)
AC50 [7]: 2.51 µM (inconclusive)

CSC1=N/C(=C\c2ccc3c(c2)OCO3)C(=O)S1
AC50 [6]: 7.94 µM (inconclusive)

Cc1ccc(C2C(C#N)=C(N)Oc3[nH]nc(-c4ccccc4)c32)o1 (stereo unspecified)
AC50 [4]: 4.75 µM (active)
EC50 [5]: 19.3 µM (active)

N#Cc1cccc(-c2nc(Nc3ccncc3)c3ccccc3n2)c1
AC50 [6]: 0.501 µM (inconclusive)
AC50 [7]: 1.58 µM (inconclusive)

O=C(Nc1cccc(F)c1)N1CCC2(CC1)CCN(C(=O)c1ccncc1)CC2
AC50 [6]: 12.6 µM (inconclusive)

Cc1ccc(C)c(NC(=S)N(CCc2nc3cc(C)c(C)cc3[nH]2)Cc2cccnc2)c1
AC50 ([1]; read-out: AC50): 2 µM (inconclusive)
EC50 [8]: 0.813 µM (active)
EC50 [9]: > 60 µM (not active)
AC50 [3]: 4.47 µM (inconclusive)

C/C(=N\NC(=O)c1cccc(C)c1)c1cccc(NC(=O)c2ccco2)c1
AC50 ([1]; read-out: AC50): 39.8 µM (inconclusive)
AC50 [3]: 14.1 µM (inconclusive)
AC50 [7]: 39.8 µM (inconclusive)

Cc1cc(NC(=O)CSc2ccc3nnc(-c4ccc(F)cc4)n3n2)no1
AC50 [6]: 14.1 µM (inconclusive)
AC50 [7]: 25.1 µM (inconclusive)

O=c1c2c(n3cnnc3n1-c1ccccc1)-c1ccccc1CC21CCCCC1
AC50 [1]: inconclusive
AC50 [6]: 15.8 µM (inconclusive)

CN(C)Cc1ccccc1-c1nccc(N(C)Cc2ccco2)n1
AC50 [6]: 31.6 µM (inconclusive)

O=C(CCn1nc(-c2ccc(Cl)cc2)c2ccccc2c1=O)NCCN1CCOCC1
AC50 ([1]; read-out: AC50): 28.2 µM (inconclusive)
AC50 [2]: 15.8 µM (inconclusive)
AC50 [7]: 17.8 µM (inconclusive)

COc1cccc(CN2CCN(Cc3ccc(C#CC(C)(C)O)s3)CC2CCO)c1 (stereo unspecified)
AC50 [4]: > 380 µM (inactive)
EC50 [5]: > 380 µM (inactive)

CCOC(=O)N1CCN(C(=O)c2ccc3nc(SCc4ccc(F)cc4)n(C)c3c2)CC1
AC50 [6]: 39.8 µM (inconclusive)
EC50 [10]: > 53 µM (inactive)
IC50 [11]: > 47.1 µM (inactive)

COc1ccc(OC)c(N(CC(=O)N2CCc3ccccc3C2)S(C)(=O)=O)c1
AC50 ([1]; read-out: AC50): 11.2 µM (inconclusive)
AC50 [3]: 15.8 µM (inconclusive)
AC50 [7]: 12.6 µM (inconclusive)

C/C(CC(=O)Nc1ccccn1)=N\NC(=O)c1ccncc1
AC50 [4]: 2.86 µM (active)
EC50 [5]: 1.94 µM (active)

COc1cccc(Cn2c(=O)c(-c3cccc(F)c3)nc3cncnc32)c1
AC50 [6]: 7.94 µM (inconclusive)
AC50 [2]: 20 µM (inconclusive)

COc1cc2c(cc1OC)[C@]13CC[N@+]4(C)CC5=CCO[C@H]6CC(=O)N2[C@@H]1[C@@H]6[C@@H]5C[C@]34O
AC50 [6]: 1 µM (inconclusive)
